Drawing on paper PMC9354638, “Targeting p21-activated kinase 4 (PAK4) with pyrazolo[3,4-d]pyrimidine derivative SPA7012 attenuates hepatic ischaemia-reperfusion injury in mice” (Journal of Enzyme Inhibition and Medicinal Chemistry, 2022), this text covers IC50 and inhibition for one molecule.

The assay concerns the target T1, PAK4 (Homo sapiens, UniProt O96013).
T1 construct: purchased Reaction Biology Corporation (Malvern, PA, USA)
Kind of assay: HotSpot kinase assay (Reaction Biology Corp.), PAK4 enzyme inhibition. To be noted: ATP 10 μM. The assay is classed as biochemical. The procedure: To examine the enzyme activity, HotSpot kinase assay was performed at Reaction Biology Corporation (Malvern, PA, USA). The kinase and substrate pairs were prepared in reaction buffer: 20 mM HEPES at pH 7.5, 10 mM MgCl2, 1 mM EGTA, 0.02% Brij 35, 0.02 mg/mL BSA, 0.1 mM Na3VO4, 2 mM DTT, and 1% DMSO. Compounds were added into the kinase reaction mixture and incubated for 20 min. Then, ^32 P-ATP was introduced to the mixture to initiate the reaction carried out at 10 μM of ATP concentration. After 2 h at room temperature, the mixture was spotted onto P81 ion exchange paper and kinase activity was then evaluated utilising the filter-binding method. Compounds were tested for single dose enzyme inhibition at a concentration of 20 μM. For the control compound, staurosporine was tested in a 10-dose IC50 mode. To determine the IC50 value, the compounds were tested for 10-doses with 3-fold serial dilution starting at 100 μM.
Synthesised compounds were evaluated for their in vitro PAK4 enzyme inhibitory activities. In vitro kinase assays were performed using HotSpot kinase assays for relative enzyme inhibitory activity at a single concentration (20 μM) and IC50 assessment at an ATP concentration of 10 μM (Figure 1(B)). […] For the allosteric pocket binder, cyclohexyl group (SPA7012) was preferable to the smaller dimethyl (SPA7011) or hydroxymethyl group (SPA7013), and the aromatic ring (SPA7014) reduced activity compared to the saturated ring (SPA7012). In vitro enzyme IC50 values appeared in the order of SPA7012, SPA7017, and SPA7016. […] Molecular docking analysis was performed on the human PAK4 catalytic domain structure complexed with GNE-2861 (PDB code: 4O0V). The binding pose of SPA7012 overlapped well with the crystal structure of GNE-2861, with the allosteric binder properly positioned in the specific back pocket. The oxygen atom in the tertiary alcohol of the hydrophobic allosteric binder formed hydrogen bonds with the backbone of Phe459 and the side chain of Glu366 (Figure 1(D)). The amine group and nitrogen atom in the pyrazolo[3,4-d]pyrimidine core scaffold also formed hydrogen bonds with Lue398 at the hinge region. Finally, SPA7012 was decided as a lead compound for further examination with satisfactory potency and subtype selectivity.

pIC50: −log10 of the molar value.

T1 sequence (O96013 whole entry): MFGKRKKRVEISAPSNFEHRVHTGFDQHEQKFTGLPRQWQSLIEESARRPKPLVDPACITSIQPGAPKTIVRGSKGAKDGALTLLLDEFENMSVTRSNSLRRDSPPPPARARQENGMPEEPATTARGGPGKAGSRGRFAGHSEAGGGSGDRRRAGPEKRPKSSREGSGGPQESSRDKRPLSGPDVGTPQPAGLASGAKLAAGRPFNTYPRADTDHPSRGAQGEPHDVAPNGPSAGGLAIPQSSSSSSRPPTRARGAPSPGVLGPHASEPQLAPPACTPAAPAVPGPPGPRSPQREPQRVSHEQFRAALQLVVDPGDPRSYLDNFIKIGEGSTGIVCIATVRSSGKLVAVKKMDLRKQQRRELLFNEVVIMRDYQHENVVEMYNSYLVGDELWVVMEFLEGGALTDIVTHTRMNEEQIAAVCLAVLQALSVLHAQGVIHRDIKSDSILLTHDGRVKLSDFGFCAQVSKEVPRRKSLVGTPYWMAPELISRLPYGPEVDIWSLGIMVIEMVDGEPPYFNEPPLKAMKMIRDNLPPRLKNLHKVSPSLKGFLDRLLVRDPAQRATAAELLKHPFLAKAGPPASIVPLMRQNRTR

As for `Cc1nn(-c2cccc(C#CC3(O)CCCCC3)c2)c2ncnc(N)c12` [Compound 14b, 3-(4-Amino-3-methylpyrazolo[3,4-d]pyrimidin-1-yl)phenylethynylcyclohexan-1-ol], the pIC50 (10-dose, 3-fold serial dilution starting at 100 μM) is 6.11. Moreover, the inhibition at 20 µM (relative percentage inhibition at 20 μM of compounds with staurosporine, read-out: PAK4 enzyme inhibition % inhibitory activity) came to 97%.
